The values that follow come from ChEMBL document CHEMBL1156829 (Proc Natl Acad Sci U S A, 2008).

Each structure is given as a SMILES string.

Data set [1] concerns Plasmodium falciparum. In words: NOVARTIS: Inhibition of Plasmodium falciparum 3D7 (drug-susceptible) proliferation in erythrocyte-based infection assay. Type of data set: functional, organism-based. To be noted: Plasmodium falciparum, 3D7.
Data set [2] concerns Plasmodium falciparum. In words: NOVARTIS: Inhibition of Plasmodium falciparum W2 (drug-resistant) proliferation in erythrocyte-based infection assay. The class given is functional, organism-based. To be noted: Plasmodium falciparum, W2; read-out: EC50.
A short description of data set [3]: NOVARTIS: Cytotoxicity against human hepatocellular carcinoma cell line (Huh7). The class given is toxicity, cell-based, Huh-7. To be noted: Huh7 cells (hepatocellular carcinoma cell line).

The term EC50 denotes the midpoint of the concentration-response curve. The CC50 is the concentration that lowers cell viability or growth by half. A low value points to harm at low concentration. `CCN(CC)CCNc1ccc(Nc2ccnc3cc4ccccc4cc23)cc1`: the EC50 is 28.2 nM with Plasmodium falciparum [1] and 41.7 nM in the data set on Plasmodium falciparum [2]. In data set [3], the 50% cytotoxic concentration (CC50) is 2.36 µM.

Regarding `Nc1ccc2nc(C=Cc3ccc(Cl)cc3)[nH]c2c1`, the EC50 was found to be 580 nM in the data set with Plasmodium falciparum [1] and 122 nM in the data set on Plasmodium falciparum [2]. The compound also came in with a 50% cytotoxic concentration (CC50) in data set [3] of 6.9 µM.

Consider `COc1cc2nc(N3CCN(c4nc(N)c5cc(OC)c(OC)cc5n4)CC3)nc(N)c2cc1OC`, for which the EC50 is 91.1 nM with Plasmodium falciparum [1] and 257 nM in the data set with Plasmodium falciparum [2]. Further, it took 14.7 µM to reach half-maximal cytotoxicity in data set [3] (CC50).

With `COCCSc1nc2sc3c(c2c(=O)n1-c1ccc(OC)cc1)CCN(C)C3`, the concentration for a half-maximal effect (EC50) was determined as 3020 nM with Plasmodium falciparum [1] and 1770 nM in the data set on Plasmodium falciparum [2]. For the same compound, the CC50 in data set [3] was more than 100 µM.

In the case of `C=CCSc1ncc(-c2ccc(Cl)cc2)n1C`, the EC50 in the data set with Plasmodium falciparum [1] was more than 12500 nM; in the data set with Plasmodium falciparum [2] it was 1770 nM. This compound also registered a CC50 in data set [3] of more than 100 µM.

For the compound `Oc1ccc(Cl)cc1CNc1nc2ccccc2[nH]1`, the EC50 in the data set with Plasmodium falciparum [1] was found to be 921 nM; with Plasmodium falciparum [2], 768 nM. The same compound returned a 50% cytotoxic concentration (CC50) in data set [3] of 43.5 µM.

For the compound `O=C1c2ccc3c4c(ccc(c24)C(=O)N1CCCCO)C(=O)N(CCCCO)C3=O`, the figures for the EC50 in the data set on Plasmodium falciparum [1] and in the data set on Plasmodium falciparum [2] were 354 nM and 77.4 nM, respectively. Besides, in data set [3], the cytotoxic concentration (CC50) came out at 4.38 µM.

For `COc1ccc(NC(=O)Cn2c(C)c(C=O)c3ccccc32)cc1`, the EC50 in the data set with Plasmodium falciparum [1] worked out at 1450 nM; in the data set with Plasmodium falciparum [2], 1770 nM. Also, the half-maximal cytotoxic concentration (CC50) in data set [3] is more than 100 µM.

For `O=C(NC(CN1CCCC1)c1ccccc1)C1CCN(S(=O)(=O)c2ccc(Cl)cc2)CC1` (stereo unspecified), the EC50 amounted to 160 nM in the data set on Plasmodium falciparum [1] and 648 nM in the data set with Plasmodium falciparum [2]. Moreover, the CC50 in data set [3] came to 36.8 µM.

Take `CCN1CCN(CCCNC(=S)Nc2ccc3nc(N4CCCC4)cc(C)c3c2)CC1`: the figures for the 50% effective concentration (EC50) with Plasmodium falciparum [1] and in the data set with Plasmodium falciparum [2] were 256 nM and 773 nM, respectively. Besides, in data set [3], the CC50 was found to be 44.2 µM.

For `Cc1n(N)c2ccccc2[n+]1CC(=O)c1ccccc1`, the EC50 with Plasmodium falciparum [1] stood at 2900 nM; with Plasmodium falciparum [2], 1750 nM. In data set [3], the CC50 was more than 100 µM.

With `O=C(Nc1ccc(Br)cc1C(=O)c1ccccc1)c1cc2nc(-c3cccs3)cc(C(F)(F)F)n2n1`, the EC50 was more than 12500 nM in the data set with Plasmodium falciparum [1] and 1760 nM with Plasmodium falciparum [2]. Further, the CC50 in data set [3] was more than 100 µM.

With `COC(=O)CNC(c1ccccc1Cl)c1cc(Br)ccc1NS(=O)(=O)c1ccc(C)cc1` (stereo unspecified), the EC50 with Plasmodium falciparum [1] is 1920 nM; in the data set with Plasmodium falciparum [2], 1760 nM. Further, the 50% cytotoxic concentration (CC50) in data set [3] is more than 100 µM.

On to `Cc1cc(NC(c2cccc(Br)c2)c2ccc3cccnc3c2O)no1` (stereo unspecified), for which the EC50 in the data set on Plasmodium falciparum [1] amounted to 267 nM; in the data set with Plasmodium falciparum [2] it was 400 nM. The compound also gave a CC50 in data set [3] of more than 22.8 µM.

As for `CCCCN1C(=O)/C(=C2/Sc3ccccc3N2C)SC1=Nc1cc(C)ccc1C`, the results for the concentration for a half-maximal effect (EC50) with Plasmodium falciparum [1] and in the data set with Plasmodium falciparum [2] were more than 581 nM and more than 175 nM, respectively. The 50% cytotoxic concentration (CC50) in data set [3] was more than 10 µM.

Regarding `O=C(Nc1cccc(C2=NCCN2)c1)c1ccc(C(=O)Nc2cccc(C3=NCCN3)c2)cc1`, the concentration for a half-maximal effect (EC50) with Plasmodium falciparum [1] was 599 nM; with Plasmodium falciparum [2] it was 178 nM. The CC50 in data set [3] was more than 10 µM.

Take `COc1cc2nc(Nc3cccc(F)c3)nc(N)c2cc1OC`: the figures for the concentration giving a half-maximal response (EC50) in the data set on Plasmodium falciparum [1] and in the data set with Plasmodium falciparum [2] were 148 nM and 358 nM, respectively. Further, the CC50 in data set [3] turned out to be 20.1 µM.

Take `CCCCCCN(C(=O)c1cccc(OC)c1)C(CC)c1nc2ccccc2c(=O)n1-c1ccc(Cl)cc1C` (stereo unspecified): the figures for the concentration for a half-maximal effect (EC50) with Plasmodium falciparum [1] and in the data set on Plasmodium falciparum [2] were 1120 nM and more than 178 nM, respectively. This compound also displayed a CC50 in data set [3] of more than 10 µM.

Take `Cc1ccc(C2C3=C(CC(C)(C)CC3=O)N(Cc3ccc4c(c3)OCO4)C3=C2C(=O)CC(C)(C)C3)cc1`: the EC50 in the data set on Plasmodium falciparum [1] turned out to be 3750 nM; in the data set with Plasmodium falciparum [2], 1770 nM. In data set [3], this compound gave a CC50 of more than 100 µM.

Consider `CCOC(=O)CCC(=O)Oc1ccccc1-c1nc2ccccn2c1NC(C)(C)CC(C)(C)C`, for which the values for the EC50 in the data set on Plasmodium falciparum [1] and in the data set with Plasmodium falciparum [2] were 1060 nM and 178 nM, respectively. For the same compound, in data set [3], the half-maximal cytotoxic concentration (CC50) is more than 10 µM.

With `Cc1cccc(N2C(N)=NC(N)=NC2(C)C)c1`, the EC50 worked out at 20.2 nM in the data set with Plasmodium falciparum [1] and 52.8 nM in the data set on Plasmodium falciparum [2]. Moreover, the half-maximal cytotoxic concentration (CC50) in data set [3] amounted to 2.98 µM.

On to `O=C(c1ccncc1)N1CCN(Cc2ccc3c(c2)OCO3)CC1`, for which the EC50 with Plasmodium falciparum [1] was found to be 964 nM; in the data set with Plasmodium falciparum [2], 176 nM. The compound further registered a cytotoxic concentration (CC50) in data set [3] of more than 10 µM.
